This assay deals with tongue carcinoma cells (Cal27). Nature of the assay: clonogenic cell survival assay, Cal27. It is filed as cell-based, Human. As to the method:
FIG. 4 is a plot showing the surviving fraction of Cal27 cells for increasing amounts of ascorbate, as determined by a clonogenic cell survival assay used to determine the effects of the compound alone and in combination with a pentaaza macrocyclic ring complex (GC4419). Human tongue carcinoma cells (Cal27) were exponentially grown in culture for 48 hours. The cells were then treated with 5-20 μM GC4419 for 24 hours, and ascorbate (Asc) for one hour, followed by immediate clonogenic assay. The cells were trypsinized, counted, replated at varying lower densities and incubated.
(§1) FIG. 6 is a graph showing the surviving fraction of Cal 27 cells treated with ascorbate and combinations with including ascorbate. The effects of ascorbic acid (AA) in combination with a pentaaza macrocyclic ring complex (GC4419) was tested in a clonogenic cell survival assay to determine the effects of the combination alone and when paired with ionizing radiation. Human tongue carcinoma cells (Cal27) were exponentially grown in culture for 48 hours. The cells were then treated with 5 μM GC4419 for 3 hours and 10 pmol/cell ascorbate for 1 hour, either alone, in combination (GC+AA), and/or paired with a dose of ionizing radiation (2 Gy). After the ionizing radiation dose, the cells were trypsinized, counted, replated at varying lower densities and incubated. Plates were stained and counted for clonogenic survival assays.
The effect of ascorbate was tested in a clonogenic cell survival assay to determine the effects of the compound alone and in combination with a pentaaza macrocyclic ring complex (GC4419). Human tongue carcinoma cells (Cal27) were exponentially grown in culture for 48 hours. The cells were then treated with 5-20 μM GC4419 for 24 hours, and ascorbate (Asc) for one hour, followed by immediate clonogenic assay. The cells were trypsinized, counted, replated at varying lower densities and incubated. Plates were stained and counted for clonogenic survival assays.
as §1, with “The” for “FIG. 6 is a graph showing the surviving fraction of Cal 27 cells treated with ascorbate and combinations with including ascorbate. The”

With `[Cl][Mn][Cl].c1cc2nc(c1)CN[C@H]1CCCC[C@@H]1NCCN[C@H]1CCCC[C@@H]1NC2` [GC4419], the “synergistic activity of the combination” value (5 μM GC4419 3 h + 10 pmol/cell ascorbate 1 h (GC+AA), FIG. 6) is “more than merely an additive effect”. The “cell killing (clonogenic survival)” value (5 μM GC4419 3 h + 10 pmol/cell ascorbate 1 h (GC+AA), compared to control and to either alone, FIG. 6) is “significant enhancements in cell killing”; the “cell killing (clonogenic survival)” value (ascorbate 1 h in combination with 5, 10 or 20 μM GC4419 24 h, compared to monotherapies, FIG. 4) is listed as “significant enhancements in cell killing”. For the same compound, for the setting “GC+AA+IR (2 Gy) compared to IR 2Gy alone, FIG. 6”, the “sensitization to ionizing radiation” value was “sensitized the cancer cells to radiation”.

The values are drawn from patent publication US11219614B2, “Combination cancer therapy with pentaaza macrocyclic ring complex and ascorbate compound” (Galera Labs, LLC, priority 2016, dated 2022).
